Test results published in EP4813993A1, “COMPOUND, PREPARATION METHOD THEREFOR, AND USE THEREOF” (Sichuan Kelun Pharmaceutical Research Institute Co., Ltd., priority 2023, dated 2025).
pIC50: −log10 of the molar value.

Biological target: T1, Nav1.8 channels (Homo sapiens, UniProt Q9Y5Y9)
T1 construct: expressed in transfected cells
Test: Manual patch-clamp, current of stably overexpressed Nav1.8 channels (resting state voltage program)
Format: cell-based
Conditions: not given
Procedure: Experimental Example 1: Effects of test substances on current of stably overexpressed Nav1.8 channels monitored via manual patch-clamp technique
Test compounds were dissolved in dimethyl sulfoxide (DMSO).
The extracellular fluid was as follows: 140 mM NaCl, 3.5 mM KCl, 1 mM MgCl2•6H2O, 2 mM CaCl2•2H2O, 10 mM D-Glucose, 10 mM HEPES, 1.25 mM NaH2PO4•2H2O; the pH was adjusted to 7.4 with NaOH. The intracellular fluid was as follows: 50 mM CsCl, 10 mM NaCl, 10 mM HEPES, 60 mM CsF, 20 mM EGTA; the pH was adjusted to 7.2 with CsOH.
2. Experimental materials and instruments
• 1) patch-clamp amplifier: EPC 10 (HEKA) • 2) micromanipulator: MP225 (Sutter Instrument) • 3) inverted microscope: MF53 (Mshot) • 4) micropipette puller: P97 (Sutter Instrument) • 5) capillary glass tube: BF150-86-10 (Sutter Instrument)
3. Experimental procedures
• 1) After the compounds were prepared into solutions with specified concentrations, the solutions were sequentially added to the pipeline of the drug delivery system and labeled. • 2) The cell climbing coverslip was placed in the recording chamber, the appropriate cells were selected under the inverted microscope, and the position of the drug delivery tip was adjusted. • 3) A capillary glass tube was pulled into a suitable recording electrode using the micropipette puller, and then the electrode filled with the intracellular fluid was mounted in the microelectrode holder. The micromanipulator was adjusted under the inverted microscope to allow the recording electrode to contact the cell, and negative pressure was applied to the electrode to form a high-resistance seal. At this time, fast capacitance compensation was performed, and then the application of negative pressure was continued to break the cell membrane, forming a whole-cell recording mode. Finally, slow capacitance compensation was performed, and related parameters were recorded. • 4) After the cell current stabilized, administration was started. Each concentration of the drug was applied for five minutes or until the current stabilized before proceeding to monitor the next concentration. The drug solutions were administered via gravity-fed delivery, flowing through the recording chamber to act on the cells in an ascending order of concentration (from low to high). A peristaltic pump was employed for solution exchange in the recording process.
4 Test voltage program (resting state) and results
After the formation of the whole-cell seal, the cell voltage was clamped at -120 mV, followed by depolarization to 0 mV using a square-wave pulse with a duration of 50 ms to elicit Nav1.8 currents. This procedure was repeated every 20 s to monitor the maximum current induced by the square wave. After the current stabilized, the test compounds were administered. Once the response stabilized, the intensity of the current block was calculated.

T1 sequence (Q9Y5Y9 whole entry): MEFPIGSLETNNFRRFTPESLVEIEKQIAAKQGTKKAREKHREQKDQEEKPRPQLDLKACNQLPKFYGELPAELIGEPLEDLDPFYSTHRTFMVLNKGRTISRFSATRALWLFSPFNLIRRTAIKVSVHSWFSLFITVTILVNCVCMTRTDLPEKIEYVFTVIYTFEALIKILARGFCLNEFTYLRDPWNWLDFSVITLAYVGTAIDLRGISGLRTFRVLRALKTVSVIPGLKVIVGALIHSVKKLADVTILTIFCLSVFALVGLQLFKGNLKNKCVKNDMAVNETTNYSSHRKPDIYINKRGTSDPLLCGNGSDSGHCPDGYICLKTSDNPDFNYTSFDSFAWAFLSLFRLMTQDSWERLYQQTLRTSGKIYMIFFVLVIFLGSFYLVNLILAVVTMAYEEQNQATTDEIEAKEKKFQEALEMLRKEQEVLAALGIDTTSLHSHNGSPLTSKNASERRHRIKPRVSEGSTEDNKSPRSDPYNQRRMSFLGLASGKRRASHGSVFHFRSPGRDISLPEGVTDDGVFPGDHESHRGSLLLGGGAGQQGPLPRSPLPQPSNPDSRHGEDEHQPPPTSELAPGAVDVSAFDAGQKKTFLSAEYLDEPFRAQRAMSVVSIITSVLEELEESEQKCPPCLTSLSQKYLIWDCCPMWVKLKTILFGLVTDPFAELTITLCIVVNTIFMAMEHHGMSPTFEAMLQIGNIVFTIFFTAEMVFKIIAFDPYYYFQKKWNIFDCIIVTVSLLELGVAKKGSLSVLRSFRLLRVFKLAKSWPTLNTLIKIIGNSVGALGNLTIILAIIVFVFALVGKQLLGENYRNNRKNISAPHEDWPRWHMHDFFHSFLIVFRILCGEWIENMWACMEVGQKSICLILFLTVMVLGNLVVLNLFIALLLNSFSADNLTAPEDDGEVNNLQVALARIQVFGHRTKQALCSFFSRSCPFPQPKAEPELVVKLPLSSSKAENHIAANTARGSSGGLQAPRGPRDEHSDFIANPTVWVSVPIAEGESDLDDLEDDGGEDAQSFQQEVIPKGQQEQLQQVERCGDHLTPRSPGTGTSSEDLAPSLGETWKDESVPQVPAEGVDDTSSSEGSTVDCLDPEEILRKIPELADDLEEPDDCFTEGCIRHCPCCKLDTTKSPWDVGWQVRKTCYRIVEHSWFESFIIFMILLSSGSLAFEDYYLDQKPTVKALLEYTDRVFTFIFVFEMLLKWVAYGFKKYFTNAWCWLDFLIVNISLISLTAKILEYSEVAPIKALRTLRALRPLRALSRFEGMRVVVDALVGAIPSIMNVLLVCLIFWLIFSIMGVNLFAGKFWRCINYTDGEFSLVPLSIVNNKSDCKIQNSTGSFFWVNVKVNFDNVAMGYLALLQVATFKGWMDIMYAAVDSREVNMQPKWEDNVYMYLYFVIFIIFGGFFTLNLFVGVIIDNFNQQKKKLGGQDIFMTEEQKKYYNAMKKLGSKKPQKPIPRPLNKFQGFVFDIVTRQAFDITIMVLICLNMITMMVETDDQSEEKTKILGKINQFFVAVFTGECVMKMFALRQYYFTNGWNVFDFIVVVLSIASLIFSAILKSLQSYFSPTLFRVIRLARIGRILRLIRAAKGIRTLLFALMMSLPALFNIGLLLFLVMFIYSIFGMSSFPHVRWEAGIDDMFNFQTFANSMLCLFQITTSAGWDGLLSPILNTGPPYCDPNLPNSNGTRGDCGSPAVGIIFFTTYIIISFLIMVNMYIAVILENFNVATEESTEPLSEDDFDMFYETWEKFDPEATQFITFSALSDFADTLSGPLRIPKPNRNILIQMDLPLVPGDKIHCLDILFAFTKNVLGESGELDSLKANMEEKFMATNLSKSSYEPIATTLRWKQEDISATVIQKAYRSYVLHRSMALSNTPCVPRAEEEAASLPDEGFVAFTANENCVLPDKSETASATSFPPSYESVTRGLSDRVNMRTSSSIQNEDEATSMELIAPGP

| pIC50 | Compound |
| --- | --- |
| 11.30 | COc1c([C@@H]2C[C@](C)(C(F)(F)F)S[C@H]2C(=O)Nc2cccc(N=[N+]=[N-])c2)ccc(F)c1F [a-29-A, (2R,3S,5R)-N-(3-azidophenyl)-3-(3,4-difluoro-2-methoxyphenyl)-5-methyl-5-(trifluoromethyl)tetrahydrothiophene-2-carboxamide] |
| 9.16 | COc1c([C@@H]2C[C@](C)(C(F)(F)F)S[C@H]2C(=O)Nc2cccc(B3OC(=O)CN(C)CC(=O)O3)c2)ccc(F)c1F [a-35-A, (2R,3S,5R)-3-(3,4-difluoro-2-methoxyphenyl)-5-methyl-N-(3-(6-methyl-4,8-dioxo-1,3,6,2-diazaborinin-2-yl)phenyl)-5-(trifluoromethyl)tetrahydrothiophene-2-carboxamide] |

Same assay, conditions: concentration of 1 nM, 0.001 µM

| Inhibition rate (%) | Compound |
| --- | --- |
| 80.7% | COc1c(C2CC(C)(C(F)(F)F)SC2C(=O)Nc2ccc(F)c(N=S(C)(C)=O)c2)ccc(F)c1F (centres unmarked) [a-22, 3-(3,4-difluoro-2-methoxyphenyl)-N-(3-((dimethyl(oxo)-16-sulfonamido)amino)-4-fluorophenyl)-5-methyl-5-(trifluoromethyl)tetrahydrothiophene-2-carboxamide] |

Same assay, conditions: concentration of 1 nM, read-out: Inhibition rate %

| inhibition at 0.001 µM | Compound |
| --- | --- |
| 84.6% | COc1c([C@@H]2C[C@](C)(C(F)(F)F)S[C@H]2C(=O)Nc2cn(S(=O)(=O)C3CC3)nc2C)ccc(F)c1F [a-21-A, (2R,3S,5R)-N-(1-(cyclopropylsulfonyl)-3-methyl-1H-pyrazol-4-yl)-3-(3,4-difluoro-2-methoxyphenyl)-5-methyl-5-(trifluoromethyl)tetrahydrothiophene-2-carboxamide] |
| 56.5% | COc1c([C@@H]2C[C@](C)(C(F)(F)F)S[C@H]2C(=O)Nc2ccc3c(c2)C(=O)NC3=O)ccc(F)c1F [a-23-A, (2R,3S,5R)-3-(3,4-difluoro-2-methoxyphenyl)-N-(1,3-dioxoisoindol-5-yl)-5-methyl-5-(trifluoromethyl)tetrahydrothiophene-2-carboxamide] |
| 74.5% | COc1c([C@@H]2C[C@](C)(C(F)(F)F)S[C@H]2C(=O)Nc2cnnc(N=[N+]=[N-])c2)ccc(F)c1F [a-30-A, (2R,3S,5R)-(4-(3-(3,4-difluoro-2-methoxyphenyl)-5-methyl-5-(trifluoromethyl)tetrahydrothiophene-2-carboxamido)-6-azido)pyridazine] |
| 81.9% | COc1c([C@@H]2C[C@](C)(C(F)(F)F)S[C@H]2C(=O)Nc2ccc(F)c(N=[N+]=[N-])c2)ccc(F)c1F [a-31-A, (2R,3S,5R)-N-(3-azido-4-fluorophenyl)-3-(3,4-difluoro-2-methoxyphenyl)-5-methyl-5-(trifluoromethyl)tetrahydrothiophene-2-carboxamide] |
| 72% | COc1c([C@@H]2C[C@](C)(C(F)(F)F)S[C@H]2C(=O)Nc2cccc(OS(N)(=O)=O)c2)ccc(F)c1F [a-39-A, (3-((2R,3S,5R)-3-(3,4-difluoro-2-methoxyphenyl)-5-methyl-5-(trifluoromethyl)tetrahydrothiophene-2-carboxamido)phenyl sulfamate] |
| 42% | COc1c([C@@H]2C[C@](C)(C(F)(F)F)S[C@H]2C(=O)Nc2cccc(-c3ncon3)c2)ccc(F)c1F [a-42-A, (2R,3S,5R)-N-(3-(1,2,4-oxadiazol-3-yl)phenyl)-3-(3,4-difluoro-2-methoxyphenyl)-5-methyl-5-(trifluoromethyl)tetrahydrothiophene-2-carboxamide] |

Continued, compound first:

| Compound | inhibition at 0.001 µM |
| --- | --- |
| COc1c([C@@H]2C[C@](C)(C(F)(F)F)S[C@H]2C(=O)Nc2ccc3c(c2)B(O)NC3=O)ccc(F)c1F [Compound a-2, (2R,3S,5R)-3-(3,4-difluoro-2-methoxyphenyl)-N-(1-hydroxy-3-oxo-2,3-dihydro-1H-benzo[c][1,2]azaborol-6-yl)-5-methyl-5-(trifluoromethyl)tetrahydrothiophene-2-carboxamide] | 83.9% |
| COc1c(C2CC(C)(C(F)(F)F)SC2C(=O)Nc2ccc(F)c(N=S(C)(C)=O)c2)ccc(F)c1F (centres unmarked) [a-15] | 70.9% |

Same assay, conditions: concentration of 10 nM, read-out: Inhibition rate %

| inhibition at 0.01 µM | Compound |
| --- | --- |
| 96.5% | COc1c(C2CC(C)(C(F)(F)F)SC2C(=O)Nc2cccc(NS(=O)(=O)CCN)c2)ccc(F)c1F (centres unmarked) [a-25, N-(3-((2-aminoethyl)sulfonamido)phenyl)-3-(3,4-difluoro-2-methoxyphenyl)-5-methyl-5-(trifluoromethyl)tetrahydrothiophene-2-carboxamide] |
| 95.6% | COc1c([C@@H]2C[C@](C)(C(F)(F)F)S[C@H]2C(=O)Nc2ccc3c(c2)S(=O)(=O)NCN3)ccc(F)c1F [a-26-A, (2R,3S,5R)-3-(3,4-difluoro-2-methoxyphenyl)-N-(1,1-dioxide-3,4-dihydro-2H-benzo[e][1,2,4]thiadiazin-7-yl)-5-methyl-5-(trifluoromethyl)tetrahydrothiophene-2-carboxamide] |
| 80.6% | COc1c(C2CC(C)(C(F)(F)F)SC2C(=O)Nc2ccc3c(c2)S(=O)(=O)N=CN3)ccc(F)c1F (centres unmarked) [a-28-A, 7-(3-(3,4-difluoro-2-methoxyphenyl)-5-methyl-5-(trifluoromethyl)tetrahydrothiophene-2-carboxamido)-4H-benzo[e][1,2,4]thiadiazine-1,1-dioxide] |
| 83.7% | COc1c([C@@H]2C[C@](C)(C(F)(F)F)S[C@H]2C(=O)Nc2ccc3c(c2)S(=O)(=O)NC3=O)ccc(F)c1F [a-36-A, (2R,3S,5R)-3-(3,4-difluoro-2-methoxyphenyl)-N-(1,1-dioxide-3-oxo-2,3-dihydrobenzo[d]isothiazol-6-yl)-5-methyl-5-(trifluoromethyl)tetrahydrothiophene-2-carboxamide] |
| 80.6% | COc1c([C@@H]2C[C@](C)(C(F)(F)F)S[C@H]2C(=O)Nc2cccc(C3N=N3)c2)ccc(F)c1F [a-41-A, (2R,3S,5R)-N-(3-(3H-diazirin-3-yl)phenyl)-3-(3,4-difluoro-2-methoxyphenyl)-5-methyl-5-(trifluoromethyl)tetrahydrothiophene-2-carboxamide] |

More lines, now with the values behind:

| Compound | inhibition at 0.01 µM |
| --- | --- |
| COc1c(C2CC(C)(C(F)(F)F)SC2C(=O)Nc2cccc(S(=O)(=O)NC#N)c2)ccc(F)c1F (centres unmarked) [Compound a-9, N-(3-(N-cyanosulfamoyl)phenyl)-3-(3,4-difluoro-2-methoxyphenyl)-5-methyl-5-(trifluoromethyl)tetrahydrothiophene-2-carboxamide] | 85.3% |
| COc1c([C@@H]2C[C@](C)(C(F)(F)F)S[C@H]2C(=O)Nc2ccc(=O)[nH]n2)ccc(F)c1F [a-3-A, (2R,3S,5R)-3-(3,4-difluoro-2-methoxyphenyl)-5-methyl-N-(6-oxo-1,6-dihydropyridazin-3-yl)-5-(trifluoromethyl)tetrahydrothiophene-2-carboxamide] | 80.2% |
| COc1c([C@@H]2C[C@](C)(C(F)(F)F)S[C@H]2C(=O)Nc2ccc3c(c2)B(O)OC3=O)ccc(F)c1F [a-6-A, (2R,3S,5R)-3-(3,4-difluoro-2-methoxyphenyl)-N-(1-hydroxy-3-oxo-1,3-dihydrobenzo[c][1,2]oxaborol-6-yl)-5-methyl-5-(trifluoromethyl)tetrahydrothiophene-2-carboxamide] | 76.9% |
| COc1c(C2CC(C)(C(F)(F)F)SC2C(=O)Nc2ccnc(N=S(C)(C)=O)c2)ccc(F)c1F (centres unmarked) [a-10, 3-(3,4-difluoro-2-methoxyphenyl)-N-(2-((dimethyl(oxo)-16-sulfanylidene)amino)pyridin-4-yl)-5-methyl-5-(trifluoromethyl)tetrahydrothiophene-2-carboxamide] | 88% |
| COc1c(C2CC(C)(C(F)(F)F)SC2C(=O)Nc2ccnc(NO)c2)ccc(F)c1F (centres unmarked) [a-16, (4-(3-(3,4-difluoro-2-methoxyphenyl)-5-methyl-5-(trifluoromethyl)tetrahydrothiophene-2-carboxamido)-2-hydroxylamine)pyridine] | 92.3% |
| COc1c([C@@H]2C[C@](C)(C(F)(F)F)S[C@H]2C(=O)Nc2ccc(F)c(C/C(C#N)=C(\C)O)c2)ccc(F)c1F [a-17-A, (2R,3S,5R)-N-(3-((Z)-2-cyano-3-hydroxybut-2-enyl)-4-fluorophenyl)-3-(3,4-difluoro-2-methoxyphenyl)-5-methyl-5-(trifluoromethyl)tetrahydrothiophene-2-carboxamide] | 65.5% |
| COc1c([C@@H]2C[C@](C)(C(F)(F)F)S[C@H]2C(=O)Nc2cccc(NS(N)(=O)=O)c2)ccc(F)c1F [a-18-A, (2R,3S,5R)-3-(3,4-difluoro-2-methoxyphenyl)-5-methyl-N-(3-(sulfamoylamino)phenyl)-5-(trifluoromethyl)tetrahydrothiophene-2-carboxamide] | 86.3% |
